Values joined by “and” are separate entries in the source; they are usually repeats but may differ in a detail not shown here. Identical values can stand only once. Like-named read-outs stand apart in the source and are kept apart here.
How the values were obtained:
[1] = biological target: HIV-1 reverse transcriptase (RT) (Human immunodeficiency virus type 1 group M subtype B, UniProt P12497); experiment: HIV-1 reverse transcriptase
[2] = tested on: HIV-1HXB2 (CXCR4-tropic) pseudovirus; experiment: Single-cycle infection assay in U87-CD4-CXCR4 cells; conditions: U87-CD4-CXCR4, HIV-1HXB2
[3] = tested on: laboratory-adapted HIV-1 strains; experiment: microbe, parasite or virus in culture; format: cell-based
[4] = tested on: YU2 core gp120; experiment: SPR: binding of YU2 core gp120 to captured mAb 17b in presence of compounds; design: species or system HIV-1; conditions: sCD4 15-fold excess, compounds 50-fold excess
[5] = tested on: VSV-G; experiment: microbe, parasite or virus in culture; format: cell-based; conditions: control, VSV-G envelope pseudovirus
[6] = tested on: U87-CD4-CXCR4 cells; experiment: Cytotoxicity in U87-CD4-CXCR4 cells; format: cell-based
[7] = tested on: HIV-1ADA; experiment: CD4-dependent CCR5-tropic HIV-1 cell-cell transmission assay; format: cell-based; conditions: read-out: IC50, CCR5-tropic HIV-1 cell-cell transmission; Ghost X4/R5 and MOLT-4/HIV-1ADA, p24
[8] = tested on: HIV-1 Env pseudoviruses; conditions: data previously published ref 19, cited from earlier work
[9] = tested on: PBMC; experiment: Cytotoxicity in PBMCs; format: cell-based, human
[10] = tested on: HIV-1IIIB; experiment: CD4-dependent CXCR4-tropic HIV-1 cell-cell transmission assay; format: cell-based; conditions: read-out: IC50, CXCR4-tropic HIV-1 cell-cell transmission; Ghost X4/R5 and H9/HIV-1IIIB, p24
[11] = tested on: fusion between MAGI-CCR5 and HL 2/3 cells; experiment: HIV-1 cell-cell fusion assay; format: cell-based; conditions: read-out: IC50, cell-cell fusion assay; MAGI-CCR5 and HL 2/3 cells
[12] = biological target: HIV-1 integrase (Human immunodeficiency virus type 1 group M subtype B, UniProt P04585); experiment: HIV-1 integrase assay; format: biochemical; conditions: read-out: IC50, HIV-1 integrase assay
[13] = tested on: lab-adapted and primary HIV-1 isolates; experiment: microbe, parasite or virus in culture; format: cell-based; conditions: PBMC
[14] = tested on: A-MLV; experiment: microbe, parasite or virus in culture; format: cell-based; conditions: control, A-MLV envelope pseudovirus
[15] = tested on: HIV-1ADA (CCR5-tropic) pseudovirus; experiment: Single-cycle infection assay in U87-CD4-CCR5 cells; conditions: U87-CD4-CCR5, HIV-1ADA
[16] = tested on: MT-2 cells; experiment: Cytotoxicity in MT-2 cells; format: cell-based
[17] = tested on: U87-CD4-CCR5 cells; experiment: Cytotoxicity in U87-CD4-CCR5 cells; format: cell-based
[18] = tested on: HIV-1 Env pseudoviruses; format: cell-based
[19] = tested on: TZM-bl cells; experiment: Cytotoxicity in TZM-bl cells; format: cell-based

Compound: Cc1cn([C@H]2C[C@H](N=[N+]=[N-])[C@@H](CO[P@](=O)(O)O[P@](=O)(O)OP(=O)(O)O)O2)c(=O)[nH]c1=O [AZT-TP]
- IC50 [1]: 8 nM

Compound: Cc1nc(C(NC(=O)c2ccc(-c3ccc(Cl)cc3)[nH]2)C2CCCCN2)sc1CO (centres unmarked) [NBD-11021A, 5-(4-Chlorophenyl)-N-((5-(hydroxymethyl)-4-methylthiazol-2-yl)-(piperidin-2-yl)methyl)-1H-pyrrole-2-carboxamide]
- IC50 [2]: 3 ± 0.4 µM
- IC50 ([3]; MT-2, HIV-1IIIB): 1.3 ± 0.2 µM

Compound: CC1(C)CC(NC(=O)C(=O)Nc2ccc(Cl)cc2)CC(C)(C)N1 [NBD-556]
- enhancement of mAb 17b binding to YU2 core gp120 (in words) [4]: highest enhancement
- IC50 [5]: > 60 µM
- CC50 [6]: ~60 µM
- IC50 [7]: ~60 µM
- IC50 [2]: 9.5 ± 0.6 µM
- IC50 ([1]; read-out: IC50, HIV-1 reverse transcriptase (RT) assay): > 200000 nM
- IC50 ([8]; subtype A, NIH #11887, Q259env.w6): 6.9 ± 0.9 µM
- IC50 ([8]; subtype A/D, NIH #11901, QA790.204I.ENV.A4): 12.3 ± 1.8 µM
- IC50 ([8]; subtype A/D, NIH #11903, QA790.204I.ENV.C8): 5 ± 1 µM
- IC50 ([8]; subtype A/D, NIH #11904, QA790.204I.ENV.E2): 7.1 ± 0.5 µM
- IC50 ([8]; subtype B, NIH #11024, AC10.0, clone 29): 8.9 ± 3 µM
- IC50 ([8]; subtype B, NIH #11038, pCAAN5342 clone A2): 2.4 ± 0.3 µM
- IC50 ([8]; subtype B, NIH #11058, SC422661.8): 4.8 ± 0.4 µM
- IC50 ([8]; subtype B, NIH #11578, pWEAUd15.410.5017, R5X4-tropic): 4.9 ± 0.8 µM
- IC50 ([8]; subtype D, NIH #11913, QA465.59M.ENV.A1): 4.8 ± 0.2 µM
- CC50 [9]: > 280 µM
- IC50 [10]: ~60 µM
- IC50 [11]: 6.5 µM
- IC50 ([3]; RT inhibitor-resistant isolate AZT-R, subtype B, MT-2, X4): 58 ± 14.3 µM
- IC50 ([3]; fusion inhibitor-resistant isolate pNL4-3 gp41(36G)V38E,N42S, subtype B, MT-2, X4): 11 ± 0.9 µM
- IC50 ([3]; laboratory strain MN, subtype B, MT-2, X4): 15.9 ± 1.6 µM
- IC50 ([3]; laboratory strain RF, subtype B, MT-2, R5X4): 18.7 ± 1.3 µM
- IC50 ([3]; laboratory strain SF2, subtype B, MT-2, R5X4): ≥ 118 µM
- IC50 ([3]; protease inhibitor-resistant isolate HIV-1RF/L-323-12-3, subtype B, MT-2, X4): < 59 µM
- IC50 [12]: > 200 µM
- IC50 ([13]; laboratory strain 89.6, subtype B, R5X4): 4.8 ± 1 µM
- IC50 ([13]; laboratory strain BaL, subtype B, R5): ≥ 118 µM
- IC50 ([13]; laboratory strain SF162, subtype B, R5): 48.9 ± 7.3 µM
- IC50 ([13]; primary isolate 92US657, subtype B, R5): 48 ± 1.65 µM
- IC50 ([13]; primary isolate 93MW959, subtype C, R5): 57.2 ± 8.7 µM
- IC50 ([13]; primary isolate 93TH060, subtype E, R5): > 45 µM
- IC50 ([13]; primary isolate RU570, subtype G, R5): 19.5 ± 2.3 µM
- IC50 [14]: > 60 µM
- IC50 [15]: 7.4 ± 0.8 µM
- CC50 [16]: > 280 µM
- CC50 [17]: ~60 µM
- IC50 [18]: 11.5 µM and 9.4 µM
- IC50 ([18]; TZM-bl, HIV-1HXB2): 6.9 ± 0.9 µM
- share of viruses showing sensitivity at ≤3 μM ([18]; panel of 56 HIV-1 Env pseudoviruses): 7%
- IC50 ([18]; subtype A2/D, NIH #11906, QG393.60M.ENV.B7): 3.5 ± 0.2 µM
- IC50 ([18]; subtype A2/D, NIH #11907, QG393.60M.ENV.B8): 3.6 ± 0.1 µM
- IC50 ([18]; subtype A, KNH1144): 20 ± 3.2 µM
- IC50 ([18]; subtype A, NIH #11888, QB726.70M.ENV.C4): 20.2 ± 6 µM
- IC50 ([18]; subtype A, NIH #11889, QB726.70M.ENV.B3): 11.3 ± 2.5 µM
- IC50 ([18]; subtype A, NIH #11890, QF495.23M.ENV.A1): 13.6 ± 2.3 µM
- IC50 ([18]; subtype A, NIH #11891, QF495.23M.ENV.A3): 27.8 ± 9.3 µM
- IC50 ([18]; subtype A, NIH #11892, QF495.23M.ENV.B2): 20.4 ± 7 µM
- IC50 ([18]; subtype A/E, AA058): 4.1 ± 0.8 µM
- IC50 ([18]; subtype A/E, CM244): 5.6 ± 0.8 µM
- IC50 ([18]; subtype A/E, NIH #11603 (potential), CRF01_AE clone 269): 10.7 ± 1.5 µM
- IC50 ([18]; subtype A/G, NIH #11601, CRF02_AG clone 263): 7 ± 2.2 µM
- IC50 ([18]; subtype A/G, NIH #11602, CRF02_AG clone 266): 4.6 ± 1.6 µM
- IC50 ([18]; subtype A/G, NIH #11605, CRF02_AG clone 278): 6.5 ± 1.1 µM
- IC50 ([18]; subtype B, B41): 4.5 ± 2 µM
- IC50 ([18]; subtype B, NIH #11018, QH0692, clone 42): 2 ± 0.6 µM
- IC50 ([18]; subtype B, NIH #11022, PVO, clone 4): 3.5 ± 0.7 µM
- IC50 ([18]; subtype B, NIH #11023, TRO, clone 11): 4.1 ± 0.6 µM
- IC50 ([18]; subtype B, NIH #11033, pWIT04160 clone 33): 4.8 ± 0.8 µM
- IC50 ([18]; subtype B, NIH #11035, PREJ04541 clone 67): 3.4 ± 0.2 µM
- IC50 ([18]; subtype B, NIH #11036, pRHPA4259 clone 7): 4.3 ± 0.5 µM
- IC50 ([18]; subtype B, NIH #11037, PTHR04156 clone 18): 8.4 ± 2.4 µM
- IC50 ([18]; subtype B, NIH #11563, p1058_11.B11.1550, R5X4-tropic): 1.9 ± 1 µM
- IC50 ([18]; subtype C, NIH #11306, Du156, clone 12): 5 ± 0.9 µM
- IC50 ([18]; subtype C, NIH #11307, Du172, clone 17): 4.8 ± 0.2 µM
- IC50 ([18]; subtype C, NIH #11308, Du422, clone 1): 6.1 ± 0.5 µM
- IC50 ([18]; subtype C, NIH #11309, ZM197M.PB7): 3.8 ± 0.3 µM
- IC50 ([18]; subtype C, NIH #11310, ZM214M.PL15): 4.1 ± 0.7 µM
- IC50 ([18]; subtype C, NIH #11311, ZM233M.PB6): 6.6 ± 0.8 µM
- IC50 ([18]; subtype C, NIH #11312, ZM249M.PL1): 6.1 ± 0.3 µM
- IC50 ([18]; subtype C, NIH #11313, ZM53M.PB12): 14.6 ± 1 µM
- IC50 ([18]; subtype C, NIH #11314, ZM109F.PB4): 6.2 ± 0.3 µM
- IC50 ([18]; subtype C, NIH #11315, ZM135M.PL10a): 2.2 ± 0.6 µM
- IC50 ([18]; subtype C, NIH #11316, CAP45.2.00.G3): 9.6 ± 0.3 µM
- IC50 ([18]; subtype C, NIH #11317, CAP210.2.00.E8): 5.3 ± 0.6 µM
- IC50 ([18]; subtype C, NIH #11908, QB099.391 M.ENV.B1): 5.7 ± 0.9 µM
- IC50 ([18]; subtype C, NIH #11909, QB099.391 M.ENV.C8): 3.6 ± 0.9 µM
- IC50 ([18]; subtype C, NIH #11910, QC406.70M.ENV.F3): 3.6 ± 0.9 µM
- IC50 ([18]; subtype D, NIH #11911, QA013.70I.ENV.H1): 9.4 ± 2.6 µM
- IC50 ([18]; subtype D, NIH #11912, QA013.70I.ENV.M12): 5.4 ± 0.3 µM
- IC50 ([18]; subtype D, NIH #11914, QA465.59M.ENV.D1): 6.1 ± 0.5 µM
- IC50 ([18]; subtype D, NIH #11916, QD435.100M.ENV.B5): 4.4 ± 1 µM
- IC50 ([18]; subtype D, NIH #11918, QD435.100M.ENV.E1): 6.2 ± 1.7 µM
- CC50 [19]: ~60 µM

Reference: paper PMC4676410 (Journal of medicinal chemistry, 2015)
